Data set [1] concerns interaction between fluorescein-labeled E. coli LPS and a CHO cell. Description: Inhibition of the interaction between fluorescein (BODIPY)-labeled E. coli LPS and CHO cells, flow cytometry. It is filed as cell-based, Chinese hamster. To be noted: CHO cells, 7-AAD(−) living cells. Here is the method: Boron dipyrromethene difluoride (BODIPY), a fluorescein, labeled E. coli LPS and CHO cells were used. BODIPY-labeled LPS was reacted with sodium glycocholate in a glass tube at 37° C. for 14 hours. 2×10^5 CHO cells mixed with the reacting solution were plated per well in a 96-well plate, and then incubated at 37° C. for 14 hours. The incubated solution was stained with 7-amino-actinomycin D (7-AAD) and then analyzed by a flow cytometer. The analysis was performed at least twice per each treatment group and the obtained data were statistically processed by t-test. The result was P<0.05 in comparison with the experimental group in which CHO cells were treated with only BODIPY-LPS.
7-AAD(−) cells were selected in order to analyze living cells. […] Therefore, it could be realized that Inflammatory inhibition efficacy of sodium glycocholate shown in the LPS-stimulated inflammatory response was due to the blocking of the interaction between LPS and cells by the action of sodium glycocholate.

The test system of the next data set is abdominal cells. Description: Toxicity to abdominal cells separated from mice after abdominal administration (7AAD). The format is in vivo, C57BL/6 mouse. Particulars: 5 mg (250 mg/kg) into abdomen, cells separated after 1 hour. As to the method:
In order to assay the toxicity of sodium glycocholate to a mouse, experiments were performed to five C57BL/6 male mice of 7-9 weeks age per each group. Sodium glycocholate dissolved in PBS was kept in vitro for 1 hour at 37° C., and then the sodium glycocholate solution was administered into the abdomen of the mice followed by the cell analysis. After 1 hour from the administration, the abdominal cells were separated and stained with 7AAD, and then the abdominal cells were analyzed. Cells which were freezed and thawed at least five times were used for a positive control group in 7ADD staining. Experimental results were statistically analyzed by t-test, and p<0.05 compared with the experimental group which was not treated with sodium glycocholate.

Entries after “also recorded” stand apart in the source; their conditions may differ.

Take `C[C@H](CCC(=O)NCC(=O)[O-])[C@H]1CC[C@H]2[C@@H]3[C@H](O)C[C@@H]4C[C@H](O)CC[C@]4(C)[C@H]3C[C@H](O)[C@]12C.[Na+]` [sodium glycocholate]: the “interaction between BODIPY-LPS and the cell” value in data set [1] was “inhibited according to the increase of the concentration”. Further, the “cytotoxicity for abdominal cells (survival rate of the abdominal cells versus PBS control)” value with abdominal cells is reported as “no significant difference; also recorded: dose not have cytotoxicity”.

Source of the values: patent publication US9272047B2, “Use of biological surfactant as anti-inflammatory agent and tissue preservative solution” (Shaperon Inc., priority 2007, dated 2016).
